Source: US20120184542A1, “PYRIDO PYRIMIDINES” (priority 2011, published 2012)
Structures can show the parent of a compound that is named as a salt. Where two headings read alike, the source gives them in different places.

Tests used:
[1] = target: T1, Human DYRK1A (Homo sapiens, UniProt Q13627); experiment: DYRK1A Kinase TR-FRET (IMAP-Tb) Assay; assay type: biochemical; conditions: TR-FRET (IMAP-Tb); ATP 70 μM; 37° C. 60 minutes; read-out: Enzyme IC50 (μM) DYRK1A
T1 construct: purchased Invitrogen PV3997
Description: The kinase TR-FRET (IMAP-Tb) assay uses a fluorescence labeled substrate peptide in the kinase reaction. Upon phosphorylation by the kinase, phosphopeptide is produced, which will be detected by the binding solution provided in IMAP TR-FRET binding kit. After the completion of the kinase reaction, the reaction will be stopped by adding the binding solution containing terbium tracer. This tracer is immobilized on the surface of the IMAP beads, which also contain metal ions on the beads that bind to the phospho-groups of the products. Thus the phosphorylated product of the reaction can enter into close proximity to the tracer, producing resonance energy transfer. Due to the long lifetime of terbium (Tb) fluorescence the detection can be run in time resolved mode, which virtually eliminates fluorescence interference from assay components or compounds.
The TR-FRET signal measurement from this assay, given as an IC50 measurement, is a measure of a test compound's ability to interfere with the phosphorylation of the peptide substrate, that is it inhibits the phosphorylation of the substrate peptide by DYRK1A, and is thus a measure of the test compound's ability to inhibit the activity of DYRK1A.
• 1. Human DYRK1A: from Invitrogen. Part #PV3997 • 2. Substrate Peptide: […] • 3. IMAP TR-FRET IPP Explorer Kit: from Molecular Devices. Part #R8157 • 4. Kinase Assay Buffer (KAB): 10 mM HEPES pH 7.0, 50 mM NaCl, 5 mM MgCl2, 1 mM DTT, 1 mM NaVO4, 200 μg/mL BSA (0.02%) • 5. Assay Plate: Remp polypropylene clear 384-well microplate. […] Detection Plate: Costa black 384-well microplate.
• 1. Transfer 1.5 μL of 20× compound solution to each well of an assay plate. • 2. Add to each well 22.5 μL of KAB Buffer. • 3. Add to each well 3 μL of the solution of DYRK1A and ATP. […] Add to each well 3 μL of the substrate peptide. The assay concentration is 1.0 μM • 5. Incubate the assay plates at 37° C. for 60 minutes. • 6. Add 18 μL of Detection Solution (1:800 diluted Progress bead stock, 1:400 diluted Tb stock, 80% Buffer A, and 20% Buffer B) into each well of detection plates. • 7. Transfer 6 μL of assay solution from the assay plate to the detection plate. • 8. Shake detection plates for 30 minutes. • 9. Read plates in Envision with wavelength set at excitation 340 nm for Tb, emission 490 nm, and […].

[2] = target: T2, Human DYRK1B (Homo sapiens, UniProt Q9Y463); experiment: DYRK1B Kinase TR-FRET (IMAP-Tb) Assay; assay type: biochemical; conditions: for IC50: TR-FRET (IMAP-Tb), ATP 70 μM, 37° C. 60 minutes
T2 construct: purchased Invitrogen PR8350B (former PV4649)
T2 sequence (Q9Y463 whole entry): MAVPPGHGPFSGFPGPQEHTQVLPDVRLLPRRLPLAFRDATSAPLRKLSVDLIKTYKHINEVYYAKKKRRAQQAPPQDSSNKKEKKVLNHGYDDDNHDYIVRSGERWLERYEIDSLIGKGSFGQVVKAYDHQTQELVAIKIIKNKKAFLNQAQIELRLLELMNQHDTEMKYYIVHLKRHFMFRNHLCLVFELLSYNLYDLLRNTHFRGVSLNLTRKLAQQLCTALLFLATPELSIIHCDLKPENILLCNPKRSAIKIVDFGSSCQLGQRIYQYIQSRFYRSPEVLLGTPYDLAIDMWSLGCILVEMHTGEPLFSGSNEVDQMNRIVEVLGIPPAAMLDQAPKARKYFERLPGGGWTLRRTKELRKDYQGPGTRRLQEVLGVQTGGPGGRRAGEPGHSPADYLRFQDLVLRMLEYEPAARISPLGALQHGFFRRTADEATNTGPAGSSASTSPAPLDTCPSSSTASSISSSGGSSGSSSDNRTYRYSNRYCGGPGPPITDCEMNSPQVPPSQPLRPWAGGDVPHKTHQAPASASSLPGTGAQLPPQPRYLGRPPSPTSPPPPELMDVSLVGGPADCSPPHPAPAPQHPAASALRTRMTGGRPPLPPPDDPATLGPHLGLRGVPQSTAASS

[3] = read-out: Enzyme IC50 (μM) DYRK1B

SMILES	IC50 [1]	IC50 [2, 3]	IC50 ([2]; Enzyme IC50 (μM) DYRK1B)	inhibition at 10 µM ([2]; read-out: % inhibition of DYRK1B at 10 μM test compound concentration)
COc1ncc2cc(C(=O)Nc3cc(C(=O)NCc4ccccn4)ccc3Cl)c(=O)[nH]c2n1 [Example 66, 2-Methoxy-7-oxo-7,8-dihydro-pyrido[2,3-d]pyrimidine-6-carboxylic acid {2-chloro-5-[(pyridin-2-ylmethyl)-carbamoyl]-phenyl}-amide]	0.16 µM	0.282 µM	–	–
COC(=O)c1ccc(Cl)c(NC(=O)c2cc3cnc(NCCO)nc3[nH]c2=O)c1 [Example 41, 4-Chloro-3-{[2-(2-hydroxy-ethylamino)-7-oxo-7,8-dihydro-pyrido[2,3-d]pyrimidine-6-carbonyl]amino}-benzoic acid methyl ester]	0.0796 µM	0.07 µM	–	–
COc1nc(C)c2cc(C(=O)Nc3cc(C(=O)NC(CCN)c4ccccc4)ccc3Cl)c(=O)[nH]c2n1 (stereo not shown) [Example 169, N-(5-(3-Amino-1-phenylpropylcarbamoyl)-2-chlorophenyl)-2-methoxy-4-methyl-7-oxo-7,8-dihydropyrido[2,3-d]pyrimidine-6-carboxamide2,2,2-trifluoroacetate]	–	–	0.101 µM	–
COc1ncc2cc(C(=O)Nc3cc(C(=O)OCc4ccccc4)ccc3C)c(=O)[nH]c2n1 [Example 26, 3-[(2-Methoxy-7-oxo-7,8-dihydro-pyrido[2,3-d]pyrimidine-6-carbonyl)-amino]-4-methyl-benzoic acid benzyl ester]	0.323 µM	0.496 µM	–	–
Cc1ncc2cc(C(=O)Nc3cc(C(=O)NC(CCN)c4ccccc4)ccc3Cl)c(=O)[nH]c2n1 (stereo not shown) [Example 112, N-(5-(3-Amino-1-phenylpropylcarbamoyl)-2-chlorophenyl)-2-methyl-7-oxo-7,8-dihydropyrido[2,3-d]pyrimidine-6-carboxamide hydrochloride]	–	–	0.018 µM	–
Cc1ncc2cc(C(=O)Nc3cc(C(=O)N[C@H](CCN)c4ccccc4)ccc3Cl)c(=O)[nH]c2n1 [Example 168, (R)—N-(5-(3-Amino-1-phenylpropylcarbamoyl)-2-chlorophenyl)-2-methyl-7-oxo-7,8-dihydropyrido[2,3-d]pyrimidine-6-carboxamide hydrochloride]	–	–	< 0.0046 µM	–
COC(=O)c1ccc(Cl)c(NC(=O)c2cc3cnc(N4CCCCC4)nc3[nH]c2=O)c1 [Example 34, 4-Chloro-3-[(7-oxo-2-piperidin-1-yl-7,8-dihydro-pyrido[2,3-d]pyrimidine-6-carbonyl)-amino]-benzoic acid methyl ester]	0.05 µM	0.06 µM	–	–
COc1ncc2cc(C(=O)Nc3cc(C(=O)NC(CN)C4CCCCC4)ccc3Cl)c(=O)[nH]c2n1 (stereo not shown) [Example 192, N-(5-(2-Amino-1-cyclohexylethylcarbamoyl)-2-chlorophenyl)-2-methoxy-7-oxo-7,8-dihydropyrido[2,3-d]pyrimidine-6-carboxamide]	0.036 µM	0.047 µM	–	–
CN(C)c1ncc2cc(C(=O)Nc3cc(C(=O)NCc4cccc(Cl)c4)ccc3Cl)c(=O)[nH]c2n1 [Example 155, N-(2-Chloro-5-(3-chlorobenzylcarbamoyl)phenyl)-2-(dimethylamino)-7-oxo-7,8-dihydropyrido[2,3-d]pyrimidine-6-carboxamide]	0.0485 µM	0.0923 µM	–	–
CCOC(=O)c1ccc(Cl)c(NC(=O)c2cc3cnc(OC)nc3[nH]c2=O)c1 [Example 82, 4-Chloro-3-[(2-methoxy-7-oxo-7,8-dihydro-pyrido[2,3-d]pyrimidine-6-carbonyl)-amino]-benzoic acid ethyl ester]	0.463 µM	1.11 µM	–	–
COc1ncc2cc(C(=O)Nc3cc(C(=O)N[C@@H](CCO)c4ccccc4)ccc3Cl)c(=O)[nH]c2n1 [Example 159, (S)—N-(2-Chloro-5-(3-hydroxy-1-phenylpropylcarbamoyl)phenyl)-2-methoxy-7-oxo-7,8-dihydropyrido[2,3-d]pyrimidine-6-carboxamide]	3.88 µM	–	–	22%
COc1ncc2cc(C(=O)Nc3cc(C(=O)NCCc4cccc(Cl)c4)ccc3Cl)c(=O)[nH]c2n1 [Example 71, 2-Methoxy-7-oxo-7,8-dihydro-pyrido[2,3-d]pyrimidine-6-carboxylic acid {2-chloro-5-[2-(3-chloro-phenyl)-ethylcarbamoyl]-phenyl}-amide]	–	–	0.135 µM	–
CN1CCN(c2ncc3cc(C(=O)Nc4cc(C(=O)N[C@H](CN)Cc5cccc(F)c5)ccc4Cl)c(=O)[nH]c3n2)CC1 [Example 187, 2-(4-Methyl-piperazin-1-yl)-7-oxo-7,8-dihydro-pyrido[2,3-d]pyrimidine-6-carboxylic acid {5-[(S)-1-aminomethyl-2-(3-fluoro-phenyl)-ethylcarbamoyl]-2-chloro-phenyl}-amide]	0.13 µM	0.202 µM	–	–
COc1ncc2cc(C(=O)Nc3cc(C(=O)NCC(C)C)ccc3Cl)c(=O)[nH]c2n1 [Example 79, 2-Methoxy-7-oxo-7,8-dihydro-pyrido[2,3-d]pyrimidine-6-carboxylic acid (2-chloro-5-isobutylcarbamoyl-phenyl)-amide]	0.779 µM	1.52 µM	–	–
COc1ncc2cc(C(=O)Nc3cc(C(=O)NC(CCCN)c4ccccc4)ccc3Cl)c(=O)[nH]c2n1 (stereo not shown) [Example 189, N-(5-(4-Amino-1-phenylbutylcarbamoyl)-2-chlorophenyl)-2-methoxy-7-oxo-7,8-dihydropyrido[2,3-d]pyrimidine-6-carboxamide]	–	–	0.0214 µM	–
COc1ncc2cc(C(=O)Nc3cc(C(=O)NC(CCN)C4CCCCC4)ccc3Cl)c(=O)[nH]c2n1 (stereo not shown) [Example 193, N-(5-(3-Amino-1-cyclohexylpropylcarbamoyl)-2-chlorophenyl)-2-methoxy-7-oxo-7,8-dihydropyrido[2,3-d]pyrimidine-6-carboxamide 2,2,2-trifluoroacetate]	–	–	0.615 µM	–
COc1ncc2cc(C(=O)Nc3cc(C(=O)NC(CCCCN)c4ccccc4)ccc3Cl)c(=O)[nH]c2n1 (stereo not shown) [Example 186, N-(5-(5-Amino-1-phenylpentylcarbamoyl)-2-chlorophenyl)-2-methoxy-7-oxo-7,8-dihydropyrido[2,3-d]pyrimidine-6-carboxamide]	–	–	1.01 µM	–
COc1ncc2cc(C(=O)Nc3cc(C(=O)N(C)Cc4cccc(Cl)c4)ccc3Cl)c(=O)[nH]c2n1 [Example 65, 2-Methoxy-7-oxo-7,8-dihydro-pyrido[2,3-d]pyrimidine-6-carboxylic acid {2-chloro-5-[(3-chloro-benzyl)-methyl-carbamoyl]-phenyl}-amide]	–	–	0.586 µM	–
CN1CCN(CCCNc2ncc3cc(C(=O)Nc4cc(C(=O)NC(CCN)c5ccccc5)ccc4Cl)c(=O)[nH]c3n2)CC1 (stereo not shown) [Example 120, N-(5-(3-Amino-1-phenylpropylcarbamoyl)-2-chlorophenyl)-2-(3-(4-methylpiperazin-1-yl)propylamino)-7-oxo-7,8-dihydropyrido[2,3-d]pyrimidine-6-carboxamide]	–	–	< 0.0046 µM	–
COc1ncc2cc(C(=O)Nc3cc(C(=O)Nc4ccccc4)ccc3Cl)c(=O)[nH]c2n1 [Example 49, 2-Methoxy-7-oxo-7,8-dihydro-pyrido[2,3-d]pyrimidine-6-carboxylic acid (2-chloro-5-phenylcarbamoyl-phenyl)-amide]	–	–	2.97 µM	–
COc1ncc2cc(C(=O)Nc3cc(C(=O)N[C@@H](CCN)c4cccc(Cl)c4)ccc3Cl)c(=O)[nH]c2n1 [Example 136, 2-Methoxy-7-oxo-7,8-dihydro-pyrido[2,3-d]pyrimidine-6-carboxylic acid {5-[(S)-3-amino-1-(3-chloro-phenyl)-propylcarbamoyl]-2-chloro-phenyl}-amide]	–	–	2.55 µM	–
